Experimental data: patent US20240116985A1, “STAPLED PEPTIDES AND METHODS THEREOF” (priority 2020, published 2024)
pIC50: −log10 of the molar value. Values after ≈ are worked out from the molar mass of the structure shown. Read-outs that look alike come from different tables or passages of the source.

Tests used:
CHI Log D procedure = assay type: physicochemical; conditions: for chromatographic logD: pH 7.4, CHI Log D
[1] = target: T1, beta-catenin/TCF4 engagement (Homo sapiens, UniProt P35222); experiment: Nano-BRET target engagement assay (B-cat-Halo & TCF4-Luc in HEK293 cells); assay type: cell-based
T1 construct: expressed in transfected cells; host or cells: HEK293
T1 sequence (P35222 1-781): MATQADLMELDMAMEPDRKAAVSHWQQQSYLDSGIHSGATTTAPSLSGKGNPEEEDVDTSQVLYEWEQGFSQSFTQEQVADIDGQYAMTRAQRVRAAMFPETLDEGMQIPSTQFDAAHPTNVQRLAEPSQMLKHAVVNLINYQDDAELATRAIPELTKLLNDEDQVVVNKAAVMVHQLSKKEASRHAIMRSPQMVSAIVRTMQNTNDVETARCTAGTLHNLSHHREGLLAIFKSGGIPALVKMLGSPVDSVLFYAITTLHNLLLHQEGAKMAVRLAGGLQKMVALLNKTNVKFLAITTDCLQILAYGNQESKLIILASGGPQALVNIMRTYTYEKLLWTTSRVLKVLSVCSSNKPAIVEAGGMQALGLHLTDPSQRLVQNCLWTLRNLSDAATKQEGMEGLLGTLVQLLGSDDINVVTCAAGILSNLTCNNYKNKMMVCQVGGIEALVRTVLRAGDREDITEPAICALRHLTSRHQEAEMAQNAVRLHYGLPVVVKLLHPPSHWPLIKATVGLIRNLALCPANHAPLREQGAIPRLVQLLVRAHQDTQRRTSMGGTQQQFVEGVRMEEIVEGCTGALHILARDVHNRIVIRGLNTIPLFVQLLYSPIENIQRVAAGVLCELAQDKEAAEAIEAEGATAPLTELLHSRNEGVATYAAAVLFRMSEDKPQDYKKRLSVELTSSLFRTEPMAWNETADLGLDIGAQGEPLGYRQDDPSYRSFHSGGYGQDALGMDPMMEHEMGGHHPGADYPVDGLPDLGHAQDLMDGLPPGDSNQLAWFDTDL

[2] = target: T2, full-length beta-Catenin (Uniprot ID P35222) (Homo sapiens, UniProt P35222); experiment: Fluorescence polarization IC50 (beta-catenin / 5FAM-TCF4 10-53 competition); assay type: binding
T2 construct: 10 nM full-length beta-Catenin (Uniprot ID P35222)
T2 sequence (P35222 1-781): T1 sequence (P35222 1-781)

Solubility in PBS = assay type: physicochemical
Outline: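 HPLC quantitation of peptide remaining in the PBS supernatant after ultracentrifugation, referenced to a 50 μM solution in DMSO.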

Row | SMILES | chromatographic logD (CHI Log D procedure) | pIC50 ([1]; read-out: NanoBRET Abs IC50) | pIC50 ([1]; read-out: NanoBRET IC50) | pIC50 ([2]; read-out: beta-Catenin FP IC50) | Solubility (Solubility in PBS) | Solubility (Solubility in PBS; Solubility (uM)) | CHI Log D (CHI Log D procedure; pH 7.4) | pIC50 ([2]; read-out: FP EC50)
1 | COc1ccccc1C[C@H](NC(=O)[C@]12CCN(C1)C(=O)OCCCC=CCCCC1(CCCC=CC[C@]3(CCCN3C(C)=O)C(=O)N[C@@H](CC(=O)O)C(=O)N[C@@H](CC(C)(C)C)C(=O)N1)C(=O)N[C@@H](CC(=O)O)C(=O)N[C@@H](CC(=O)O)C(=O)N[C@@H](C)C(=O)N[C@@H](C)C(=O)N[C@@H](Cc1ccccc1)C(=O)N[C@@H](CC(N)=O)C(=O)N2)C(=O)N[C@@H](Cc1csc2ccccc12)C(=O)N[C@@H](CCC(N)=O)C(N)=O (stereo partly drawn) [I-780, Ac-PL3-Asp-Npg-B5-Asp-Asp-Ala-Ala-Phe-Asn-PyrS2-2OMeF-BztA-Gln-NH2] | 2.08 | 4.68 | 4.77 | 8.05 | 50 µM (≈ 97.1 µg/mL) |  |  | 
2 | CC(=O)N1CCC[C@]12CC=CCCCC1(CCCC=CCCCOC(=O)N3CC[C@@](C(=O)N[C@@H](Cc4ccccc4Cl)C(=O)N[C@@H](Cc4csc5ccccc45)C(=O)N[C@@H](CCC(N)=O)C(N)=O)(C3)NC(=O)[C@H](CC(N)=O)NC(=O)[C@H](Cc3ccccc3)NC(=O)[C@H](C)NC(=O)[C@H](C)NC(=O)[C@H](CN(CC(=O)O)CC(F)(F)F)NC(=O)[C@H](CC(=O)O)NC1=O)NC(=O)[C@H](CC(C)(C)C)NC(=O)[C@H](CC(=O)O)NC2=O (stereo partly drawn) [I-921, Ac-PL3-Asp-Npg-B5-Asp-TfeGA-Ala-Ala-Phe-Asn-PyrS2-2C1F-BztA-Gln-NH2] | 2.26 |  | 5.40 | 8.10 |  | 24 µM (≈ 49.4 µg/mL) |  | 
3 | CC(=O)N1CCC[C@]12CC=CCCCC1(CCCC=CCCCCOC(=O)N3CC[C@@](C(=O)N[C@@H](Cc4ccsc4)C(=O)N[C@@H](Cc4csc5ccccc45)C(=O)N[C@@H](CCC(N)=O)C(N)=O)(C3)NC(=O)[C@H](CC(N)=O)NC(=O)[C@H](Cc3ccccc3)NC(=O)[C@H](C)NC(=O)[C@H](C)NC(=O)[C@H](CC(=O)O)NC(=O)[C@H](CC(=O)O)NC1=O)NC(=O)[C@H](CC(C)(C)C)NC(=O)[C@H](CC(=O)O)NC2=O (stereo partly drawn) [I-767, Ac-PL3-Asp-Npg-B5-Asp-Asp-Ala-Ala-Phe-Asn-PyrS3-3Thi-BztA-Gln-NH2] |  | 4.43 |  | 7.92 | 50 µM (≈ 96.6 µg/mL) |  | 2.004 | 7.92

Further compounds by rising pIC50 ([2]; read-out: beta-Catenin FP IC50), results first:

Row | chromatographic logD (CHI Log D procedure) | pIC50 ([1]; read-out: NanoBRET Abs IC50) | pIC50 ([1]; read-out: NanoBRET IC50) | pIC50 ([2]; read-out: beta-Catenin FP IC50) | Solubility (Solubility in PBS) | Solubility (Solubility in PBS; Solubility (uM)) | CHI Log D (CHI Log D procedure; pH 7.4) | pIC50 ([2]; read-out: FP EC50) | SMILES
4 | 2.37 | < 4.70 |  | 7.42 | 10 µM (≈ 20.2 µg/mL) |  |  |  | CC(=O)N1CCC[C@]12CC=CCCCC1(CCCC=CCCCOC(=O)N3CC[C@@](C(=O)N[C@@H](Cc4ccccc4Cl)C(=O)N[C@@H](Cc4csc5ccccc45)C(=O)N[C@@H](CCC(N)=O)C(N)=O)(C3)NC(=O)[C@H](CC(C)C)NC(=O)[C@H](Cc3ccccc3)NC(=O)[C@H](C)NC(=O)[C@H](C)NC(=O)[C@H](CC(=O)O)NC(=O)[C@H](CC(=O)O)NC1=O)NC(=O)[C@H](Cc1cccc3ccccc13)NC(=O)[C@H](CC(=O)O)NC2=O (stereo partly drawn) [I-1110, Ac-PL3-Asp-1NapA-B5-Asp-Asp-Ala-Ala-Phe-Leu-PyrS2-2C1F-BztA-Gln-NH2]
5 | 2.36 | < 4.70 |  | 7.55 | 10 µM (≈ 20.2 µg/mL) |  |  |  | CC(=O)N1CCC[C@]12CC=CCCCC1(CCCC=CCCCOC(=O)N3CC[C@@](C(=O)N[C@@H](Cc4ccccc4Cl)C(=O)N[C@@H](Cc4csc5ccccc45)C(=O)N[C@@H](CCC(N)=O)C(N)=O)(C3)NC(=O)[C@H](CC(C)C)NC(=O)[C@H](Cc3ccccc3)NC(=O)[C@H](C)NC(=O)[C@H](C)NC(=O)[C@H](CC(=O)O)NC(=O)[C@H](CC(=O)O)NC1=O)NC(=O)[C@H](Cc1ccc3ccccc3c1)NC(=O)[C@H](CC(=O)O)NC2=O (stereo partly drawn) [I-1111, Ac-PL3-Asp-2NapA-B5-Asp-Asp-Ala-Ala-Phe-Leu-PyrS2-2C1F-BztA-Gln-NH2]
6 | 2.98 | 5.21 |  | 7.74 |  | 39 µM (≈ 72.7 µg/mL) |  |  | CC(=O)N1CCC[C@]12CC=CCCCC1(CCCC=CCCCCCC[C@@](C)(C(=O)N[C@@H](Cc3ccccc3Cl)C(=O)N[C@@H](Cc3csc4ccccc34)C(=O)N[C@H](C(N)=O)[C@@H](C)O)NC(=O)[C@H]([C@@H](C)O)NC(=O)[C@H](Cc3ccccc3)NC(=O)[C@H](C)NC(=O)[C@H](C)NC(=O)[C@H](CC(=O)O)NC(=O)[C@H](CC(=O)O)NC1=O)NC(=O)[C@H](CC(C)(C)C)NC(=O)[C@H](CC(=O)O)NC2=O (stereo partly drawn) [I-1090, Ac-PL3-Asp-Npg-B5-Asp-Asp-Ala-Ala-Phe-Thr-S8-2C1F-BztA-Thr-NH2]
